Experimental data: ChEMBL document CHEMBL1151570, “Preparation and Properties of a fibrinogen receptor antagonist containing the Arg-Gly-Asp sequence and nitroxide radicals” (Bioorg Med Chem Lett, 1993)

Columns and labels:
Homo sapiens = species: Homo sapiens; assay: Compound was evaluated for in vitro inhibition of ADP-induced aggregation of human platelet rich plasma; type: functional
[1] = biological target: Integrin alpha-IIb/beta-3 (Homo sapiens, UniProt P05106+P08514); assay: Dissociation constant for platelet glycoprotein alphaIIb-beta3 integrin from human platelets
Chain of Integrin alpha-IIb/beta-3 (P05106 27-788 limits assumed): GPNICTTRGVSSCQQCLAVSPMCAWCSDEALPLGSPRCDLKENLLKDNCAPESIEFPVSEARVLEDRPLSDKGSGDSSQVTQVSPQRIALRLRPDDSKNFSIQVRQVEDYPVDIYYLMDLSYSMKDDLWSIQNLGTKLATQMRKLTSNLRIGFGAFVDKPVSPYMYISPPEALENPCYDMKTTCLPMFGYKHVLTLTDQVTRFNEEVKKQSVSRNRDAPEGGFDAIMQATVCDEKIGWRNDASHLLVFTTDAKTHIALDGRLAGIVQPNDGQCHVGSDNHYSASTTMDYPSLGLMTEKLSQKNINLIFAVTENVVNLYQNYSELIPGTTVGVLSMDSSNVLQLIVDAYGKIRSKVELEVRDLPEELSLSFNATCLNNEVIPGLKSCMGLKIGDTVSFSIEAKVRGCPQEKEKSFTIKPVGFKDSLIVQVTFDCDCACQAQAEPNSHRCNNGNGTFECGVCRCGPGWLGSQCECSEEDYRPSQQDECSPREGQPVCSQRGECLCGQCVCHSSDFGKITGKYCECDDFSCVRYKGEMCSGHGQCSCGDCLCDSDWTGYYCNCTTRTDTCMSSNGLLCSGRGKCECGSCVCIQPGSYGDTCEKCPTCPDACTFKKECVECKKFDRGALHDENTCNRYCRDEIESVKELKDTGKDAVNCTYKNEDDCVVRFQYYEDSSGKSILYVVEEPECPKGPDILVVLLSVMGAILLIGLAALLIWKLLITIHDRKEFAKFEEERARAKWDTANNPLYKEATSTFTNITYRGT
Chain of Integrin alpha-IIb/beta-3 (P08514 32-887 limits assumed): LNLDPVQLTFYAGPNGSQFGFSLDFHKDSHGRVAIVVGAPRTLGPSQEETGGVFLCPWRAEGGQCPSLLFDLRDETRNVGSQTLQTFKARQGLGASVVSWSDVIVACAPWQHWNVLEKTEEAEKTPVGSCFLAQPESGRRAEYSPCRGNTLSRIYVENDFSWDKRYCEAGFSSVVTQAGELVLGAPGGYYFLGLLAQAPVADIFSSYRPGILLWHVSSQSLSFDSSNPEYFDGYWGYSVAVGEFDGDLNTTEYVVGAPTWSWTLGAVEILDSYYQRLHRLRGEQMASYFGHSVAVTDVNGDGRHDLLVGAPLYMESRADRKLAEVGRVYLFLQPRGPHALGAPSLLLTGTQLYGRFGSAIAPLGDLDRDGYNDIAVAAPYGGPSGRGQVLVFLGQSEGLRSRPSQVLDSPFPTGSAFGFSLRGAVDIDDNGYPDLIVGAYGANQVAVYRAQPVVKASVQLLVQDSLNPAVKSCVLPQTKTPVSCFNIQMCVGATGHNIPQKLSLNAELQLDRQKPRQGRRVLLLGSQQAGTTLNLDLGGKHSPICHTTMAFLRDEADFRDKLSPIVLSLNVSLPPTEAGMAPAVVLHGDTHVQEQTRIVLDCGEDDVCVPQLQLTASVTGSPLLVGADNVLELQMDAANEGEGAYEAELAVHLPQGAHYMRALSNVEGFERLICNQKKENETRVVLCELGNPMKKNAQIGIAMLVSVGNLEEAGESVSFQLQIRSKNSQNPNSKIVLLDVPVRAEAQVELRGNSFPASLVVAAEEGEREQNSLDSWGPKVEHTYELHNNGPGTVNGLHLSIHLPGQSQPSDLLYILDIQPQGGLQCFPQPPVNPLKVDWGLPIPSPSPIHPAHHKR
Chain of Integrin alpha-IIb/beta-3 (P08514 891-1039 limits assumed): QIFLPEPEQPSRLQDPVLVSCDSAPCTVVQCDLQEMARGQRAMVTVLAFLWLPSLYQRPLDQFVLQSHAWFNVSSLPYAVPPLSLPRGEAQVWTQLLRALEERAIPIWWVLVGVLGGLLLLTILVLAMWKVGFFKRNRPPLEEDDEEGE

| Compound | IC50 (Homo sapiens) | Ki [1] |
| --- | --- | --- |
| CC1(C)CC(NC(=O)CBr)CC(C)(C)N1[O] | > 200 µM | > 1000 µM |
| CN(C(=O)c1ccccc1SCC(=O)NC1CC(C)(C)N([O])C(C)(C)C1)[C@@H](CCCN=C(N)N)C(=O)NCC(=O)N[C@@H](C(=O)O)C(=O)Nc1ccccc1SCC(=O)NC1CC(C)(C)N([O])C(C)(C)C1 | 1.02 µM | 0.11 µM |
